# Measurements reported in US6265437A, “Aminoalkanesulphonic acid derivatives, their preparation and their use as medicaments” (LIPHA, priority 2000, dated 2001).
# Assay: displacement of tritiated calcium acetylhomotaurinate from a preparation of rat brain section
# Assay type: binding
# Conditions: in vitro, displacement of titiated calcium acetylhomotaurinate
# Excerpt: In in vitro tests, it has furthermore been shown that these compounds have the ability to displace titiated calcium acetylhomotaurinate from a preparation of rat brain section.
row,SMILES,IC50 [µM]
1,"CC(C)C(=O)NCCCS(=O)(=O)O [Example 3, magnesium 3-(2-(methyl)propanoylamino)propanesulphonate]",28.9
2,"CC(C)(C)C(=O)NCCCS(=O)(=O)O [Example 15, magnesium 3-(2,2-(dimethyl)propanoylamino)propanesulphonate]",49.5
3,"CC(=O)NC(C)CCS(=O)(=O)O (centres unmarked) [Example 17, calcium 3-(acetylamino)-3-methylpropanesulphonate]",93

# Other lines, results leading:
row,IC50 [µM],SMILES
1,46.9,"CC(C)(C)C(=O)NCCCS(=O)(=O)O [Example 1, calcium 3-(2-2-(dimethyl)propanoylamino)propanesulphonate]"
2,42,"CC(C)CC(=O)NCCCS(=O)(=O)O [Example 14, magnesium 3-(3-(methyl)butanoylamino)propanesulphonate]"
